pIC50: −log10 of the molar value.
Legend:
[1] = Concentration required to inhibit RNA dependent RNA polymerase was determined from polio virus
[2] = Concentration required to inhibit DNA dependent RNA polymerase was determined from calf thymus
[3] = Concentration required to inhibit RNA dependent RNA polymerase was determined from polio virus; remark: listed apart in the source

Row | SMILES | pIC50 [1] | pIC50 [2] | pIC50 [3]
1 | O=C(O)c1ccc2[nH]cc(C[C@H](NC(=O)c3ccc4c(c3)nc(-c3ccoc3)n4C3CCCCC3)C(=O)O)c2c1 [3-{(S)-2-Carboxy-2-[(1-cyclohexyl-2-furan-3-yl-1H-benzoimidazole-5-carbonyl)-amino]-ethyl}-1H-indole-5-carboxylic acid] | < 3.70 | < 3.60 | 
2 | CC(=O)Nc1ccc2[nH]cc(C[C@H](NC(=O)c3ccc4c(c3)nc(-c3ccoc3)n4C3CCCCC3)C(=O)O)c2c1 [(S)-3-(5-Acetylamino-1H-indol-3-yl)-2-[(1-cyclohexyl-2-furan-3-yl-1H-benzoimidazole-5-carbonyl)-amino]-propionic acid] | < 3.90 | < 3.60 | 
3 | NC(=O)c1ccc2[nH]cc(C[C@H](NC(=O)c3ccc4c(c3)nc(-c3ccoc3)n4C3CCCCC3)C(=O)O)c2c1 [(S)-3-(5-Carbamoyl-1H-indol-3-yl)-2-[(1-cyclohexyl-2-furan-3-yl-1H-benzoimidazole-5-carbonyl)-amino]-propionic acid] | < 3.70 | < 3.60 | 
4 | Nc1ccc2[nH]cc(C[C@H](NC(=O)c3ccc4c(c3)nc(-c3ccoc3)n4C3CCCCC3)C(=O)O)c2c1 [(S)-3-(5-Amino-1H-indol-3-yl)-2-[(1-cyclohexyl-2-furan-3-yl-1H-benzoimidazole-5-carbonyl)-amino]-propionic acid] |  | < 3.60 | < 3.30
5 | O=C(N[C@@H](Cc1c[nH]c2ccc(O)cc12)C(=O)O)c1ccc2c(c1)nc(-c1ccoc1)n2C1CCCCC1 [(S)-2-[(1-Cyclohexyl-2-furan-3-yl-1H-benzoimidazole-5-carbonyl)-amino]-3-(5-hydroxy-1H-indol-3-yl)-propionic acid] |  | < 3.70 | 4.10
6 | CC(C)(Oc1ccc2[nH]cc(C[C@H](NC(=O)c3ccc4c(c3)nc(-c3ccoc3)n4C3CCCCC3)C(=O)O)c2c1)C(=O)O [(S)-3-[5-(1-Carboxy-1-methyl-ethoxy)-1H-indol-3-yl]-2-[(1-cyclohexyl-2-furan-3-yl-1H-benzoimidazole-5-carbonyl)-amino]-propionic acid] | < 3.70 |  | 
7 | O=C(O)C(=O)Nc1ccc2[nH]cc(C[C@H](NC(=O)c3ccc4c(c3)nc(-c3ccoc3)n4C3CCCCC3)C(=O)O)c2c1 [(S)-2-[(1-Cyclohexyl-2-furan-3-yl-1H-benzoimidazole-5-carbonyl)-amino]-3-[5-(oxalyl-amino)-1H-indol-3-yl]-propionic acid] |  | < 3.60 | < 3.60
8 | O=C(O)COc1ccc2[nH]cc(C[C@H](NC(=O)c3ccc4c(c3)nc(-c3ccoc3)n4C3CCCCC3)C(=O)O)c2c1 [(S)-3-(5-(carboxymethoxy)-1H-indol-3-yl)-2-(1-cyclohexyl-2-(furan-3-yl)-1H-benzo[d]imidazole-5-carboxamido)propanoic acid] |  | < 3.70 | 4.00
9 | CS(=O)(=O)Nc1ccc2[nH]cc(C[C@H](NC(=O)c3ccc4c(c3)nc(-c3ccoc3)n4C3CCCCC3)C(=O)O)c2c1 [(S)-2-[(1-Cyclohexyl-2-furan-3-yl-1H-benzoimidazole-5-carbonyl)-amino]-3-(5-methanesulfonylamino-1H-indol-3-yl)-propionic acid] | < 3.30 |  | 
10 | O=C(N[C@@H](Cc1c[nH]c2ccc(-c3nnn[nH]3)cc12)C(=O)O)c1ccc2c(c1)nc(-c1ccoc1)n2C1CCCCC1 [(S)-2-[(1-Cyclohexyl-2-furan-3-yl-1H-benzoimidazole-5-carbonyl)-amino]-3-[5-(5H-tetrazol-5-yl)-1H-indol-3-yl]-propionic acid] |  | < 3.60 | < 3.70
11 | O=C(N[C@@H](Cc1c[nH]c2ccc(NS(=O)(=O)C(F)(F)F)cc12)C(=O)O)c1ccc2c(c1)nc(-c1ccoc1)n2C1CCCCC1 [(S)-2-[(1-Cyclohexyl-2-furan-3-yl-1H-benzoimidazole-5-carbonyl)-amino]-3-(5-trifluoromethanesulfonylamino-1H-indol-3-yl)-propionic acid] | < 3.60 | < 3.60 | 

Reference: BindingDB's records for doi:10.1016/j.bmcl.2003.12.032 (Boehringer Ingelheim (Canada), 2004)
